Data taken from US10597378B2 (priority 2017, dated 2020).
pEC50: −log10 of the molar value. Where two headings read alike, the source gives them in different places.

Target: MOR (Homo sapiens, UniProt P35372)
Experiment: cell-based
Set-up: expressed in transfected cells; host or cells: CHO-K1/MOR/Ga15 cells
Details: for FLIPR Ca2+ AUC: area under the [Ca2+]i fluorescence response curve, up to 90 s
Description: In an exemplary in vitro assay for identifying MOR agonists, cells that express a MOR are treated with a test compound in a cellular calcium fluorescent assay and calcium fluorescence intensity is then measured to determine whether the MOR is activated. A test compound is identified as a MOR agonist if the MOR is activated.
EC50 herein refers to the concentration of a compound that induces a response halfway between the baseline and the maximum after a specified exposure time. AUC refers to the area under the response curve, an indication of the compound's capability of activating a MOR.
One day before the assay, CORNING® black with clear flat bottom 96-well assay plates were coated with a 0.1 mg/mL Poly-L-Lysine solution. CHO-K1/MOR/Ga15 cells were suspended in the F12 medium and plated at a density of about 8×10^4 cells/well in […] medium. Cells were incubated in a humidified atmosphere of 10% CO2 at 37° C. overnight so as to reach an 80-90% confluent cell monolayer before the assay. On the day of the assay, 150 μL medium/well was removed from plate. […] Compounds and other reagents were dissolved in the assay buffer. […] The [Ca^2+]i fluorescence was measured up to 90 s after agonist injection.

[1] = CHO-K1/MOR/Ga15 cells, read-out: FLIPR Ca2+ EC50

Chain of MOR (P35372 whole entry): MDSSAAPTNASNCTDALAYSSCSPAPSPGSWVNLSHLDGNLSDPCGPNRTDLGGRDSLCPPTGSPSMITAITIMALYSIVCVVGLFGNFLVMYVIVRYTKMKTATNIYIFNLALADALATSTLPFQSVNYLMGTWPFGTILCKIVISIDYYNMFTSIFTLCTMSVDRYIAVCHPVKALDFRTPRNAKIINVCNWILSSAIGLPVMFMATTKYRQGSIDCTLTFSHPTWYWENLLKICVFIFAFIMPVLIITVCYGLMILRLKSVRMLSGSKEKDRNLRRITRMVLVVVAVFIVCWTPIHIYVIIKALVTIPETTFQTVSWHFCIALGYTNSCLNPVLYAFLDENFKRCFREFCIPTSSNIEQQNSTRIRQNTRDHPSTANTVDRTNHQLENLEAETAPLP

O=C(NCC1NCCc2ccccc21)C1CCCCC1 (stereo not shown) [Compound 5, N-(1,2,3,4-Tetrahydro-1-isoquinolinylmethyl)cyclohexanecarboxamide]
pEC50 [1]: 5.20 | FLIPR Ca2+ AUC: 6142

O=C(NCC1c2ccccc2CCN1S(=O)(=O)c1ccc(Br)cc1OC(F)(F)F)C1CCCCC1 (stereo not shown) [Compound 6, N-[(2-{[4-Bromo-2-(trifluoromethoxy)phenyl]sulfonyl}-1,2,3,4-tetrahydro-1-isoquinolinyl)methyl]cyclohexanecarboxamide]
pEC50 [1]: 5.95 | FLIPR Ca2+ AUC: 15139

O=C(NCC1c2ccccc2CCN1S(=O)(=O)c1ccc(Br)cc1C(F)(F)F)C1CCCCC1 (stereo not shown) [Compound 7, N-[(2-{[4-Bromo-2-(trifluoromethyl)phenyl]sulfonyl}-1,2,3,4-tetrahydro-1-isoquinolinyl)methyl]cyclohexanecarboxamide]
pEC50 [1]: 5.59 | FLIPR Ca2+ AUC: 7697

Cc1cc(Br)ccc1S(=O)(=O)N1CCc2ccccc2C1CNC(=O)C1CCCCC1 (stereo not shown) [Compound 8, N-({2-[(4-Bromo-2-methylphenyl)sulfonyl]-1,2,3,4-tetrahydro-1-isoquinolinyl}methyl)cyclohexanecarboxamide]
pEC50 [1]: > 5.00 | pEC50 (FLIPR Ca2+ EC50, CHO-K1/MOR/Ga15 cells): 5.20 | FLIPR Ca2+ AUC: 3757

O=C(NCC1c2ccccc2CCN1S(=O)(=O)c1ccc(Br)cc1)C1CCCCC1 (stereo not shown) [Compound 9, N-({2-[(4-Bromophenyl)sulfonyl]-1,2,3,4-tetrahydro-1-isoquinolinyl}methyl)cyclohexanecarboxamide]
pEC50 [1]: 5.05 | FLIPR Ca2+ AUC: 6103

O=C(NCC1c2ccccc2CCN1S(=O)(=O)c1ccc(Br)cc1Br)C1CCCCC1 (stereo not shown) [Compound 10, N-({2-[(2,4-Dibromophenyl)sulfonyl]-1,2,3,4-tetrahydro-1-isoquinolinyl}methyl)cyclohexanecarboxamide]
pEC50 [1]: 5.48 | FLIPR Ca2+ AUC: 7023

O=C(NCC1c2ccccc2CCN1S(=O)(=O)c1ccc(Br)cc1Cl)C1CCCCC1 (stereo not shown) [Compound 11, N-({2-[(4-Bromo-2-chlorophenyl)sulfonyl]-1,2,3,4-tetrahydro-1-isoquinolinyl}methyl)cyclohexanecarboxamide]
pEC50: 5.25 | FLIPR Ca2+ AUC: 7597

O=C(NCC1c2ccccc2CCN1S(=O)(=O)c1ccc(Br)cc1F)C1CCCCC1 (stereo not shown) [Compound 12, N-({2-[ (4-Bromo-2-fluorophenyl)sulfonyl]-1,2,3,4-tetrahydro-1-isoquinolinyl}methyl)cyclohexanecarboxamide]
pEC50 [1]: 5.02 | FLIPR Ca2+ AUC: 7271

O=C(NCC1c2ccccc2CCN1S(=O)(=O)c1ccccc1OC(F)(F)F)C1CCCCC1 (stereo not shown) [Compound 13, N-[(2-{[2-(Trifluoromethoxy)phenyl]sulfonyl}-1,2,3,4-tetrahydro-1-isoquinolinyl)methyl]cyclohexanecarboxamide]
pEC50 [1]: 5.48 | FLIPR Ca2+ AUC: 5152

COc1ccccc1S(=O)(=O)N1CCc2ccccc2C1CNC(=O)C1CCCCC1 (stereo not shown) [Compound 14, N-({2-[(2-Methoxyphenyl)sulfonyl]-1,2,3,4-tetrahydro-1-isoquinolinyl}methyl)cyclohexanecarboxamide]
pEC50 [1]: 4.65 | FLIPR Ca2+ AUC: 3327

O=C(NCC1c2ccccc2CCN1S(=O)(=O)c1ccc(F)cc1C(F)(F)F)C1CCCCC1 (stereo not shown) [Compound 15, N-[(2-{[4-Fluoro-2-(trifluoromethyl)phenyl]sulfonyl}-1,2,3,4-tetrahydro-1-isoquinolinyl)methyl]cyclohexanecarboxamide]
pEC50 [1]: 5.23 | FLIPR Ca2+ AUC: 5153

Cc1cc(F)ccc1S(=O)(=O)N1CCc2ccccc2C1CNC(=O)C1CCCCC1 (stereo not shown) [Compound 16, N-({2-[(4-Fluoro-2-methylphenyl)sulfonyl]-1,2,3,4-tetrahydro-1-isoquinolinyl}methyl)cyclohexanecarboxamide]
pEC50 [1]: 5.00 | FLIPR Ca2+ AUC: 6213

O=C(NCC1c2ccccc2CCN1S(=O)(=O)c1ccc(Cl)cc1)C1CCCCC1 (stereo not shown) [Compound 17, N-({2-[(4-Chlorophenyl)sulfonyl]-1,2,3,4-tetrahydro-1-isoquinolinyl}methyl)cyclohexanecarboxamide]
pEC50: 5.22 | FLIPR Ca2+ AUC: 6144

Cc1ccc(S(=O)(=O)N2CCc3ccccc3C2CNC(=O)C2CCCCC2)cc1 (stereo not shown) [Compound 18, N-({2-[(4-Methylphenyl)sulfonyl]-1,2,3,4-tetrahydro-1-isoquinolinyl}methyl)cyclohexanecarboxamide]
pEC50: 5.19 | FLIPR Ca2+ AUC: 6808

COc1ccc(S(=O)(=O)N2CCc3ccccc3C2CNC(=O)C2CCCCC2)cc1 (stereo not shown) [Compound 19, N-({2-[(4-Methoxyphenyl)sulfonyl]-1,2,3,4-tetrahydro-1-isoquinolinyl}methyl)cyclohexanecarboxamide]
pEC50 [1]: 5.11 | FLIPR Ca2+ AUC: 3418

CC1CCC(C(=O)NCC2c3ccccc3CCN2S(=O)(=O)c2ccc(Br)cc2OC(F)(F)F)CC1 (stereo not shown) [Compound 20, N-[(2-{[4-Bromo-2-(trifluoromethoxy)phenyl]sulfonyl}-1,2,3,4-tetrahydro-1-isoquinolinyl)methyl]-4-methylcyclohexanecarboxamide]
pEC50 [1]: 6.01

O=C(NCC1c2ccccc2CCN1S(=O)(=O)c1ccc(Br)cc1OC(F)(F)F)C1CCCC1 (stereo not shown) [Compound 21, N-[(2-{[4-Bromo-2-(trifluoromethoxy)phenyl]sulfonyl}-1,2,3,4-tetrahydro-1-isoquinolinyl)methyl]cyclopentanecarboxamide]
pEC50 [1]: 6.09

O=C(NCC1c2ccccc2CCN1S(=O)(=O)c1ccc(Br)cc1OC(F)(F)F)c1ccccc1 (stereo not shown) [Compound 24, N-[(2-{[4-Bromo-2-(trifluoromethoxy)phenyl]sulfonyl}-1,2,3,4-tetrahydro-1-isoquinolinyl)methyl]benzamide]
pEC50 [1]: 5.25 | FLIPR Ca2+ AUC: 9294

O=C(NCC1c2ccccc2CCN1S(=O)(=O)c1ccc(Br)cc1OC(F)(F)F)N1CCCCC1 (stereo not shown) [Compound 25, N-[(2-{[4-Bromo-2-(trifluoromethoxy)phenyl]sulfonyl}-1,2,3,4-tetrahydro-1-isoquinolinyl)methyl]-1-piperidinecarboxamide]
pEC50 [1]: 5.56 | FLIPR Ca2+ AUC: 10498

O=C(NCC1c2ccccc2CCN1S(=O)(=O)c1ccc(Br)cc1OC(F)(F)F)N1CCCC1 (stereo not shown) [Compound 26, N-[(2-{[4-Bromo-2-(trifluoromethoxy)phenyl]sulfonyl}-1,2,3,4-tetrahydro-1-isoquinolinyl)methyl]-1-pyrrolidinecarboxamide]
pEC50 [1]: 5.36 | FLIPR Ca2+ AUC: 12484

O=C(NCC1c2ccccc2CCN1S(=O)(=O)c1ccc(Br)cc1OC(F)(F)F)C1CCC1 (stereo not shown) [Compound 27, N-[(2-{[4-Bromo-2-(trifluoromethoxy)phenyl]sulfonyl}-1,2,3,4-tetrahydro-1-isoquinolinyl)methyl]cyclobutanecarboxamide]
pEC50 [1]: 5.87 | FLIPR Ca2+ AUC: 13461

O=C(NCC1c2ccccc2CCN1S(=O)(=O)c1ccc(Br)cc1OC(F)(F)F)C1CC1 (stereo not shown) [Compound 28, N-[(2-{[4-Bromo-2-(trifluoromethoxy)phenyl]sulfonyl}-1,2,3,4-tetrahydro-1-isoquinolinyl)methyl]cyclopropanecarboxamide]
pEC50 [1]: 5.30 | FLIPR Ca2+ AUC: 11880

CC(C)(C)C(=O)NCC1c2ccccc2CCN1S(=O)(=O)c1ccc(Br)cc1OC(F)(F)F (stereo not shown) [Compound 29, N-[(2-{[4-Bromo-2-(trifluoromethoxy)phenyl]sulfonyl}-1,2,3,4-tetrahydro-1-isoquinolinyl)methyl]-2,2-dimethylpropanamide]
pEC50 [1]: 5.34 | FLIPR Ca2+ AUC: 12780

O=C(NCC1NCCc2ccccc21)N1CCCCC1 (stereo not shown) [Compound 35, N-(1,2,3,4-Tetrahydro-1-isoquinolinylmethyl)-1-piperidinecarboxamide]
pEC50 [1]: 5.48

O=C(NCC1NCCc2ccccc21)N1CCOCC1 (stereo not shown) [Compound 36, N-(1,2,3,4-Tetrahydro-1-isoquinolinylmethyl)-4-morpholinecarboxamide]
pEC50 [1]: 5.09

O=C(NCC1NCCc2ccccc21)N1CCCC1 (stereo not shown) [Compound 37, N-(1,2,3,4-Tetrahydro-1-isoquinolinylmethyl)-1-pyrrolidinecarboxamide]
pEC50 [1]: 5.40 | FLIPR Ca2+ AUC: 3480

Cc1ccc(C(=O)NCC2NCCc3ccccc32)cc1 (stereo not shown) [Compound 38, 4-Methyl-N-(1,2,3,4-tetrahydro-1-isoquinolinylmethyl)benzamide]
pEC50 (read-out: FLIPR Ca2+ EC50): 6.85

CC1CCC(C(=O)NCC2NCCc3ccccc32)CC1 (stereo not shown) [Compound 39, 4-Methyl-N-(1,2,3,4-tetrahydro-1-isoquinolinylmethyl)cyclohexanecarboxamide]
pEC50 [1]: 5.82 | FLIPR Ca2+ AUC: 12657

CCC1CCC(C(=O)NCC2NCCc3ccccc32)CC1 (stereo not shown) [Compound 40, 4-Ethyl-N-(1,2,3,4-tetrahydro-1-isoquinolinylmethyl)cyclohexanecarboxamide]
pEC50 [1]: 5.95 | FLIPR Ca2+ AUC: 10059

CC1CCCCC1C(=O)NCC1NCCc2ccccc21 (stereo not shown) [Compound 41, 2-Methyl-N-(1,2,3,4-tetrahydro-1-isoquinolinylmethyl)cyclohexanecarboxamide]
pEC50 [1]: 5.00 | FLIPR Ca2+ AUC: 5627

COC1CCC(C(=O)NCC2NCCc3ccccc32)CC1 (stereo not shown) [Compound 42, 4-Methoxy-N-(1,2,3,4-tetrahydro-1-isoquinolinylmethyl)cyclohexanecarboxamide]
pEC50 [1]: 5.18 | FLIPR Ca2+ AUC: 5538
